Among the data in patent US12534452B2, “N-(1H-imidazol-2-yl)benzamide compound and pharmaceutical composition comprising the same as active ingredient” (KAINOS MEDICINE, INC., priority 2019, dated 2026) are IC50 values, retold here.

The test deals with IRAK4 (Homo sapiens (Human), UniProt Q9NWZ3). In words: In vitro IRAK4 phosphorylation activity assay. Conditions: [γ-33P]-ATP, myelin basic protein substrate, 40 minutes at room temperature; categories. The class given is biochemical. A digest of the protocol: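 Radiometric filter-binding assay, no compound–kinase preincubation; 8 mM MOPS pH 7.0, 0.2 mM EDTA, 10 mM Mg acetate, 0.33 mg/mL myelin basic protein substrate, [γ-33P]-ATP. Reaction 40 min at room temperature, stopped with phosphoric acid, scintillation counting; IC50 reported in categories.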
Chain of IRAK4 (Q9NWZ3 whole entry): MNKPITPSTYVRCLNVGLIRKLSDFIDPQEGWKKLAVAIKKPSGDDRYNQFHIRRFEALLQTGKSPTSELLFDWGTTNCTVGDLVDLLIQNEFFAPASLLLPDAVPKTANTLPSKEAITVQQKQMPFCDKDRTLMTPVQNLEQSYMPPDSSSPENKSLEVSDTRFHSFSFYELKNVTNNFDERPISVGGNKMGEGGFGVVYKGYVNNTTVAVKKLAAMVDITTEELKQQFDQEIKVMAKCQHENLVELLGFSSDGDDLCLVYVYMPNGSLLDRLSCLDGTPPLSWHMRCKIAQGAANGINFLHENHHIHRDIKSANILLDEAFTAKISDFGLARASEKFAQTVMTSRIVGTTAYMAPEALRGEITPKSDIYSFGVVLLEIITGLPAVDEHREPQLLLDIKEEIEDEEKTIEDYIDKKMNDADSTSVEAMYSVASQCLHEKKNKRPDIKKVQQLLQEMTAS
In general, IC50 refers to the point on the concentration scale where inhibition reaches its midpoint. Take `COC1CCC(NC(=O)CCCc2cn(-c3ccccc3)c(NC(=O)c3cccc(-c4cnn(C)c4)c3)n2)CC1` (centres unmarked) [Example 161, N-(4-(4-((4-methoxycyclohexyl)amino)-4-oxobutyl)-1-phenyl-1H-imidazol-2-yl)-3-(1-methyl-1H-pyrazol-4-yl)benzamide]: the IC50 is below 0.05 µM.
The same measure for `O=C(Nc1nc(CCCCCCNc2ccccc2)cn1-c1ccccc1)c1cccc(-c2cn[nH]c2)c1` [Example 122, N-(1-phenyl-4-(6-(phenylamino)hexyl)-1H-imidazol-2-yl)-3-(1H-pyrazol-4-yl)benzamide]: 0.05 to 0.1 µM; for `Cn1ncc2cc(-c3cccc(C(=O)Nc4nc(CCCCCCN5CCCCC5)cn4-c4ccccc4)c3)ccc21` [Example 263, 3-(1-methyl-1H-indazol-5-yl)-N-(1-phenyl-4-(6-(piperidin-1-yl)hexyl)-1H-imidazol-2-yl)benzamide]: 0.05 to 0.1 µM.
As for `O=C(Nc1nc(CCC[N+]2([O-])CCOCC2)cn1-c1ccccc1)c1cccc(-c2cn[nH]c2)c1` [Example 126, 4-(3-(2-(3-(1H-pyrazol-4-yl)benzamido)-1-phenyl-1H-imidazol-4-yl)propyl)morpholine 4-oxide], the figure is below 0.05 µM; as for `O=C(CCCCc1cn(-c2ccccc2)c(NC(=O)c2cccc(-c3cn[nH]c3)c2)n1)Nc1ccccc1` [Example 76, N-(4-(5-oxo-5-(phenylamino)pentyl)-1-phenyl-1H-imidazol-2-yl)-3-(1H-pyrazol-4-yl)benzamide], below 0.05 µM; as for `O=C(Nc1nc(CCCCN2CCOCC2)cn1-c1ccccc1)c1cccc(-c2cn[nH]c2)c1` [Example 114, N-(4-(4-morpholinobutyl)-1-phenyl-1H-imidazol-2-yl)-3-(1H-pyrazol-4-yl)benzamide], below 0.05 µM.
For the compound `Cn1cc(-c2cccc(C(=O)Nc3nc(CCCC(=O)Nc4ccncc4)cn3-c3ccccc3)c2)cn1` [Example 150, 3-(1-methyl-1H-pyrazol-4-yl)-N-(4-(4-oxo-4-(pyridin-4-ylamino)butyl)-1-phenyl-1H-imidazol-2-yl)benzamide], the IC50 is below 0.05 µM.
For `Cn1cc(-c2cccc(C(=O)Nc3nc(CCCC(=O)N4CCN(C(C)(C)C)CC4)cn3-c3ccccc3)c2)cn1` [Example 181, N-(4-(4-(4-(tert-butyl)piperazin-1-yl)-4-oxobutyl)-1-phenyl-1H-imidazol-2-yl)-3-(1-methyl-1H-pyrazol-4-yl)benzamide], the IC50 is below 0.05 µM.
As for `Cn1ncc2cc(-c3cccc(C(=O)Nc4nc(CCCCCCN5CCOCC5)cn4-c4ccccc4)c3)ccc21` [Example 264, 3-(1-methyl-1H-indazol-5-yl)-N-(4-(6-morpholinohexyl)-1-phenyl-1H-imidazol-2-yl)benzamide], the figure is above 0.1 µM; as for `CN1CCN(CCCNC(=O)CCCc2cn(-c3ccccc3)c(NC(=O)c3cccc(-c4cnn(C)c4)c3)n2)CC1` [Example 186, 3-(1-methyl-1H-pyrazol-4-yl)-N-(4-(4-((3-(4-methylpiperazin-1-yl)propyl)amino)-4-oxobutyl)-1-phenyl-1H-imidazol-2-yl)benzamide], 0.05 to 0.1 µM.
As for `O=C(Nc1nc(CCC(=O)N2CCN(Cc3ccc(OC(F)(F)F)cc3)CC2)cn1-c1ccccc1)c1cccc(-c2cn[nH]c2)c1` [Example 14, N-(4-(3-oxo-3-(4-(4-(trifluoromethoxy)benzyl)piperazin-1-yl)propyl)-1-phenyl-1H-imidazol-2-yl)-3-(1H-pyrazol-4-yl)benzamide], the figure is above 0.1 µM.
The same measure for `CCOC(C)(C)n1cc(-c2cccc(C(=O)Nc3nc(CCCC(=O)NC4CC4)cn3-c3ccccc3)c2)cn1` [Example 73, N-(4-(4-(cyclopropylamino)-4-oxobutyl)-1-phenyl-1H-imidazol-2-yl)-3-(1-(2-ethoxypropan-2-yl)-1H-pyrazol-4-yl)benzamide]: 0.05 to 0.1 µM.
Compound `Cn1cc(-c2cccc(C(=O)Nc3nc(CCCCC(=O)N4CCC(N)CC4)cn3-c3ccccc3)c2)cn1` [Example 213, N-(4-(5-(4-aminopiperidin-1-yl)-5-oxopentyl)-1-phenyl-1H-imidazol-2-yl)-3-(1-methyl-1H-pyrazol-4-yl)benzamide] registered an IC50 below 0.05 µM.
The compound `Cn1cc(-c2cccc(C(=O)Nc3nc(CCCC(=O)N4CCC(O)CC4)cn3-c3ccccc3)c2)cn1` [Example 169, N-(4-(4-(4-hydroxypiperidin-1-yl)-4-oxobutyl)-1-phenyl-1H-imidazol-2-yl)-3-(1-methyl-1H-pyrazol-4-yl)benzamide] yielded an IC50 below 0.05 µM.
As for `C[C@@H]1CCCCN1C(=O)CCCCCc1cn(-c2ccccc2)c(NC(=O)c2cccc(-c3cn[nH]c3)c2)n1` [Example 96, (R)—N-(4-(6-(2-methylpiperidin-1-yl)-6-oxohexyl)-1-phenyl-1H-imidazol-2-yl)-3-(1H-pyrazol-4-yl)benzamide], the figure is below 0.05 µM; as for `Cn1cc(-c2cccc(C(=O)Nc3nc(CCCC(=O)N4CCCC(F)(F)C4)cn3-c3ccccc3)c2)cn1` [Example 175, N-(4-(4-(3,3-difluoropiperidin-1-yl)-4-oxobutyl)-1-phenyl-1H-imidazol-2-yl)-3-(1-methyl-1H-pyrazol-4-yl)benzamide], below 0.05 µM.
The same measure for `Cn1cc(-c2cccc(C(=O)Nc3nc(CCCC(=O)NC4CCNCC4)cn3-c3ccccc3)c2)cn1` [Example 214, 3-(1-methyl-1H-pyrazol-4-yl)-N-(4-(4-oxo-4-(piperidin-4-ylamino)butyl)-1-phenyl-1H-imidazol-2-yl)benzamide]: above 0.1 µM; for `Cn1cc(-c2cccc(C(=O)Nc3nc(CCCCCCN4CCCCC4)cn3-c3ccccc3)c2)cn1` [Example 220, 3-(1-methyl-1H-pyrazol-4-yl)-N-(1-phenyl-4-(6-(piperidin-1-yl)hexyl)-1H-imidazol-2-yl)benzamide]: below 0.05 µM.
As for `CN(C)C1CCC(NC(=O)CCCc2cn(-c3ccccc3)c(NC(=O)c3cccc(-c4cnn(C)c4)c3)n2)CC1` (centres unmarked) [Example 147, N-(4-(4-((4-(dimethylamino)cyclohexyl)amino)-4-oxobutyl)-1-phenyl-1H-imidazol-2-yl)-3-(1-methyl-1H-pyrazol-4-yl)benzamide], the figure is below 0.05 µM; as for `COC[C@@H]1CCCN1NC(=O)CCCCc1cn(-c2ccccc2)c(NC(=O)c2cccc(-c3cn[nH]c3)c2)n1` [Example 84, (S)—N-(4-(5-((2-(methoxymethyl)pyrrolidin-1-yl)amino)-5-oxopentyl)-1-phenyl-1H-imidazol-2-yl)-3-(1H-pyrazol-4-yl)benzamide], below 0.05 µM.
For `CNC(=O)Cc1cn(-c2ccccc2)c(NC(=O)c2cccc(-c3cn[nH]c3)c2)n1` [Example 41, N-(4-(2-(methylamino)-2-oxoethyl)-1-phenyl-1H-imidazol-2-yl)-3-(1H-pyrazol-4-yl)benzamide], the IC50 is above 0.1 µM.
As for `Cn1cc(-c2cccc(C(=O)Nc3nc(CCCC(=O)Nc4ccc5c(cnn5C)c4)cn3-c3ccccc3)c2)cn1` [Example 191, N-(4-(4-((1-methyl-1H-indazol-5-yl)amino)-4-oxobutyl)-1-phenyl-1H-imidazol-2-yl)-3-(1-methyl-1H-pyrazol-4-yl)benzamide], the figure is below 0.05 µM; as for `COC[C@H]1CCCN1C(=O)Cc1cn(-c2ccccc2)c(NC(=O)c2cccc(-c3cn[nH]c3)c2)n1` [Example 47, (R)—N-(4-(2-(2-(methoxymethyl)pyrrolidin-1-yl)-2-oxoethyl)-1-phenyl-1H-imidazol-2-yl)-3-(1H-pyrazol-4-yl)benzamide], above 0.1 µM.
